Consider 41 compounds from US6716833B2, “Acetylenic α-amino acid-based sulfonamide hydroxamic acid tace inhibitors” (priority 1999, dated 2004).

As a reminder, the % Inhibition is the change of the read-out against control, counted positive when it falls. The term inhibition denotes the percentage by which the read-out fell short of the control.

TNF-α converting enzyme (TACE), sequence (P78536 215-824, species assumed): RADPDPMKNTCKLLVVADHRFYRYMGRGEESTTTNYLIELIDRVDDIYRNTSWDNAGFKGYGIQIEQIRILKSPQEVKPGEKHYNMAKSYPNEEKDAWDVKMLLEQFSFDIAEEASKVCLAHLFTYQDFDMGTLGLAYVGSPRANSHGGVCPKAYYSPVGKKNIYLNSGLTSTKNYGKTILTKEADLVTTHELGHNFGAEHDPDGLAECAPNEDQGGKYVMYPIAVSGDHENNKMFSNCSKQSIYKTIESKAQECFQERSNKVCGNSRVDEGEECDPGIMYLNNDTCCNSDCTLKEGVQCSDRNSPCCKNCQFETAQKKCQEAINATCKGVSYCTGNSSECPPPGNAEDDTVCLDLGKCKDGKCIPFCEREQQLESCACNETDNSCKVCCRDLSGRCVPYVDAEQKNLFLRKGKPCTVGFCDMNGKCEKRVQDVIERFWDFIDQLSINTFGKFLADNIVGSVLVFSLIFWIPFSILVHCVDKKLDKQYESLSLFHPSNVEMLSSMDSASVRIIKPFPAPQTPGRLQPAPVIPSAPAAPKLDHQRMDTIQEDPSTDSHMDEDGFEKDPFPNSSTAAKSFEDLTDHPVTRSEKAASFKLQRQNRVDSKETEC

One test has as its target TNF-α converting enzyme (TACE) (Homo sapiens, UniProt P78536). Kind of test: TACE inhibition (fluorescent peptidyl substrate). The test is classed as biochemical. The following applies: 1 uM; Table 15.
Take `CC#CCOc1ccc(S(=O)(=O)NC(C(=O)NO)C(C)C)cc1` (stereo not drawn) [Example 104]: the “% Inhibition at 1 uM (In Vitro Inhibition of TACE)” value is 38.5%.
On the same count and under the same terms, the value for `CC#CCOc1ccc(S(=O)(=O)NC(CC(=O)O)C(=O)NO)cc1` (stereo not drawn) [Example 67] was 46.2%; that for `CC#CCOc1ccc(S(=O)(=O)NC(CC(C)C)C(=O)NO)cc1` (stereo not drawn) [Example 79] was 107%; that for `CC#CCOc1ccc(S(=O)(=O)NC(Cc2ccccc2)C(=O)NO)cc1` (stereo not drawn) [Example 94] was 38.2%.
On the same count and under the same terms, the value for `CC#CCOc1ccc(S(=O)(=O)NCCC(=O)NO)cc1` [Example 69] was 48.5%.

Staying with this test, now noted: 1 uM; Table 15; read-out: % Inhibition at 1 uM (In Vitro Inhibition of TACE).
With `CC#CCOc1ccc(S(=O)(=O)NC(C)C(=O)NO)cc1` (stereo in doubt) [Example 62B, L-2-(4-but-2-ynyloxy-Benzenesulfonylamino)-N-hydroxy-propionamide], the inhibition at 1 µM came out at 46.2%.

The test is the same for the next values; noted with them: IC 50 nM (In Vitro Inhibition of TACE), Table 15.
Turning to `CC#CCOc1ccc(S(=O)(=O)N[C@@H](CSCc2ccc(OC)cc2)C(=O)NO)cc1` [Example 74], the IC50 amounted to 297 ± 119 nM.
On the same count and under the same terms, the value for `CC#CCOc1ccc(S(=O)(=O)N[C@H](CCCCNC(=O)Cc2ccccc2)C(=O)NO)cc1` [Example 363, (2R)-2-({[4-(But-2-ynyloxy)phenyl]sulfonyl}amino)-N-hydroxy-6-[(2-phenylacetyl)amino]hexanamide] was 3.39 nM; that for `CC#CCOc1ccc(S(=O)(=O)N[C@H](CCC)C(=O)NO)cc1` [Example 313, (2R)-2-({[4-(But-2-ynyloxy)phenyl]sulfonyl}amino)-N-hydroxypentanamide] was 6.3 nM.
The same measure, in the same setting: the figure for `CC#CCOc1ccc(S(=O)(=O)N[C@H](CCCNC(=O)c2ccccc2)C(=O)NO)cc1` [Example 330, N-[(4R)-4-({[4-(But-2-ynyloxy)phenyl]sulfonyl}amino)-5-(hydroxyamino)-5-oxopentyl]benzamide] is 3.58 nM.
Same read-out and setting: the figure for `CC#CCOc1ccc(S(=O)(=O)N[C@H](Cc2cccc3ccccc23)C(=O)NO)cc1` [Example 310, (2R)-2-({[4-(But-2-ynyloxy)phenyl]sulfonyl}amino)-N-hydroxy-3-(1-naphthyl)propanamide] is 27.9 nM; for `CC#CCOc1ccc(S(=O)(=O)N[C@H](CCCCNC(=O)c2ccsc2)C(=O)NO)cc1` [Example 365, N-[(5R)-5-({[4-(But-2-ynyloxy)phenyl]sulfonyl}amino)-6-(hydroxyamino)-6-oxohexyl]thiophene-3-carboxamide] it is 14.6 nM; for `CC#CCOc1ccc(S(=O)(=O)N[C@H](CCCNC(=O)c2ccncc2)C(=O)NO)cc1` [Example 340, N-[(4R)-4-({[4-(But-2-ynyloxy)phenyl]sulfonyl}amino)-5-(hydroxyamino)-5-oxopentyl]isonicotinamide] it is 6.67 nM.
The compound `CC#CCOc1ccc(S(=O)(=O)N2CCC[C@@H]2C(=O)NO)cc1` [Example 82] yielded an IC50 of 7.1 nM.
On the same count and under the same terms, the value for `CC#CCOc1ccc(S(=O)(=O)N[C@H](CCc2ccccc2)C(=O)NO)cc1` [Example 305, (2R)-2-({[4-(But-2-ynyloxy)phenyl]sulfonyl}amino)-N-hydroxy-4-phenylbutanamide] was 13.4 nM; that for `CC#CCOc1ccc(S(=O)(=O)N[C@H](CCCNC(=O)c2cnc3ccccc3c2)C(=O)NO)cc1` [Example 346, N-[(4R)-4-({[4-(But-2-ynyloxy)phenyl]sulfonyl}amino)-5-(hydroxyamino)-5-oxopentyl]quinoline-3-carboxamide] was 4.63 nM.
Compound `CC#CCOc1ccc(S(=O)(=O)N[C@H](Cc2c[nH]c3ccccc23)C(=O)NO)cc1` [Example 83] came in with an IC50 of 45.1 ± 9.5 nM.
Regarding `CC#CCOc1ccc(S(=O)(=O)N[C@H](CCCNC(=O)c2ccccc2OC)C(=O)NO)cc1` [Example 342, N-[(4R)-4-({[4-(But-2-ynyloxy)phenyl]sulfonyl}amino)-5-(hydroxyamino)-5-oxopentyl]-2-methoxybenzamide], the IC50 was found to be 4.54 nM.
Still for that read-out and setting: the value for `CC#CCOc1ccc(S(=O)(=O)N[C@H](CCCNC(=O)c2ccc(Br)cc2)C(=O)NO)cc1` [Example 331, 4-Bromo-N-[(4R)-4-({[4-(but-2-ynyloxy)phenyl]sulfonyl}amino)-5-(hydroxyamino)-5-oxopentyl]benzamide] was 5.32 nM.
The compound `CC#CCOc1ccc(S(=O)(=O)N[C@H](CCCN)C(=O)NO)cc1` [Example 314, (2R)-5-Amino-2-({[4-(but-2-ynyloxy)phenyl]sulfonyl}amino)-N-hydroxypentanamide] yielded an IC50 of 25 nM.
The compound `CC#CCOc1ccc(S(=O)(=O)N[C@H](CCCNC(=O)Nc2ccccc2)C(=O)NO)cc1` [Example 370, (2R)-5-[(Anilinocarbonyl)amino]-2-({[4-(but-2-ynyloxy)phenyl]sulfonyl}amino)-N-hydroxypentanamide] returned an IC50 of 2.4 nM.
As to `CC#CCOc1ccc(S(=O)(=O)N[C@@H](CC(=O)OC2CCCCC2)C(=O)NO)cc1` [Example 68], the IC50 is 885 nM.
The compound `CC#CCOc1ccc(S(=O)(=O)N[C@H](CCCCNC(=O)c2ccc(Br)cc2)C(=O)NO)cc1` [Example 351, 4-Bromo-N-[(5R)-5-({[4-(but-2-ynyloxy)phenyl]sulfonyl}amino)-6-(hydroxyamino)-6-oxohexyl]benzamide] came in with an IC50 of 9.57 nM.
On the same count and under the same terms, the figure for `CC#CCOc1ccc(S(=O)(=O)N[C@H](C(=O)NO)c2ccccc2)cc1` [Example 95] is 120 nM.
Still for that read-out and setting: the value for `CC#CCOc1ccc(S(=O)(=O)N[C@H](CCCNC(=O)CN2CCN(C)CC2)C(=O)NO)cc1` [Example 377, (2R)-2-({[4-(but-2-ynyloxy)Phenyl]sulfonyl}amino)-N-hydroxy-5-{[2-(4-methylpiperazin-1-yl)acetyl]amino}pentanamide] was 26.5 nM; that for `CC#CCOc1ccc(S(=O)(=O)N[C@H](CCCNC(=O)CNCc2ccccc2)C(=O)NO)cc1` [Example 378, (2R)-5-{[2-(Benzylamino)acetyl]amino}-2-({[4-(but-2-ynyloxy)phenyl]sulfonyl}amino)-N-hydroxypentanamide] was 22.8 nM; that for `CC#CCOc1ccc(S(=O)(=O)N2CSC[C@@H]2C(=O)NO)cc1` [Example 324, (4S)-3-{[4-(But-2-ynyloxy)phenyl]sulfonyl}-N-hydroxy-1,3-thiazolidine-4-carboxamide] was 14.7 nM.
Compound `CC#CCOc1ccc(S(=O)(=O)N[C@H](CCCCNC(=O)c2ccccc2OC)C(=O)NO)cc1` [Example 360, N-[(5R)-5-({[4-(But-2-ynyloxy)phenyl]sulfonyl}amino)-6-(hydroxyamino)-6-oxohexyl]-2-methoxybenzamide] yielded an IC50 of 4.97 nM.
Same read-out and setting: the figure for `CC#CCOc1ccc(S(=O)(=O)N[C@@H](C(=O)NO)[C@H](C)OCc2ccccc2)cc1` [Example 323, (2R,3S)-3-(Benzyloxy)-2-({[4-(but-2-ynyloxy)phenyl]sulfonyl}amino)-N-hydroxybutanamide] is 17.6 nM; for `CC#CCOc1ccc(S(=O)(=O)N[C@@H](COCc2ccccc2)C(=O)NO)cc1` [Example 97] it is 283 ± 42 nM; for `CC#CCOc1ccc(S(=O)(=O)N[C@H](CCC(N)=O)C(=O)NO)cc1` [Example 303, (2R)-2-({[4-(But-2-ynyloxy)phenyl]sulfonyl}amino)-N-hydroxypentanediamide] it is 27.4 nM.
With `CC#CCOc1ccc(S(=O)(=O)N[C@H](CCCNC(=O)c2ccsc2)C(=O)NO)cc1` [Example 347, N-[(4R)-4-({[4-(But-2-ynyloxy)phenyl]sulfonyl}amino)-5-(hydroxyamino)-5-oxopentyl]thiophene-3-carboxamide], the IC50 amounted to 3.15 nM.
In the case of `CC#CCOc1ccc(S(=O)(=O)N[C@H](CCCCNC(=O)/C=C/c2ccccc2)C(=O)NO)cc1` [Example 366, (E)-N-[(5R)-5-({[4-(But-2-ynyloxy)phenyl]sulfonyl}amino)-6-(hydroxyamino)-6-oxohexyl]-3-phenylprop-2-enamide], the IC50 was determined as 106 nM.
In turn, `CC#CCOc1ccc(S(=O)(=O)N[C@H](CCCCNC(=O)OCc2ccccc2)C(=O)NO)cc1` [Example 309, Benzyl(5R)-5-({[4-(but-2-ynyloxy)phenyl]sulfonyl}amino)-6-(hydroxyamino)-6-oxohexylcarbamate] had an IC50 of 11.4 nM.
On the same count and under the same terms, the figure for `CC#CCOc1ccc(S(=O)(=O)N[C@H](CCCNC(=O)Cc2ccc([N+](=O)[O-])cc2)C(=O)NO)cc1` [Example 344, (2R)-2-({[4-(But-2-ynyloxy)phenyl]sulfonyl}amino)-N-hydroxy-5-{[2-(4-nitrophenyl)acetyl]amino}pentanamide] is 5.24 nM; for `CC#CCOc1ccc(S(=O)(=O)N[C@H](CCCCNC(=O)c2ccc(Cl)cc2)C(=O)NO)cc1` [Example 353, N-[(5R)-5-({[4-(But-2-ynyloxy)phenyl]sulfonyl}amino)-6-(hydroxyamino)-6-oxohexyl]-4-chlorobenzamide] it is 6.1 nM.
Same read-out and setting: the figure for `CC#CCOc1ccc(S(=O)(=O)N[C@H](CCCNC(=O)N(CC)CC)C(=O)NO)cc1` [Example 373] is 16.9 nM.

Still in this test, the particulars now being: read-out: IC 50 nM (In Vitro Inhibition of TACE); Table 15.
Turning to `CC#CCOc1ccc(S(=O)(=O)NC(CC(C)C)C(=O)NO)cc1` (stereo not drawn) [Example 79], the IC50 stood at 5.7 ± 2.5 nM.
In the case of `CC#CCOc1ccc(S(=O)(=O)N[C@H](CCCNC(=O)c2cc(C)oc2C)C(=O)NO)cc1` [Example 337, N-[(4R)-4-({[4-(But-2-ynyloxy)phenyl]sulfonyl}amino)-5-(hydroxyamino)-5-oxopentyl]-2,5-dimethyl-3-furamide], the IC50 worked out at 4.2 nM.
The same measure, in the same setting: the value for `CC#CCOc1ccc(S(=O)(=O)N[C@H](Cc2ccc(F)c(F)c2)C(=O)NO)cc1` [Example 315, (2R)-2-({[4-(But-2-ynyloxy)phenyl]sulfonyl}amino)-3-(3,4-digluorophenyl)-N-hydroxypropanamide] was 5.7 nM.
Still for that read-out and setting: the figure for `CC#CCOc1ccc(S(=O)(=O)N[C@H](CCCNC(=O)Oc2ccc(OC)cc2)C(=O)NO)cc1` [Example 372, 4-Methoxyphenyl(4R)-4-({[4-(but-2-ynyloxy)phenyl]sulfonyl}amino)-5-(hydroxyamino)-5-oxopentylcarbamate] is 8.4 nM.

Staying with this test, now noted: read-out: TACE IC50.
As to `CC#CCOc1ccc(S(=O)(=O)N(C)CC(=O)NO)cc1` [Example 17, 2-[(4-but-2-ynyloxy-Benzenesulfonyl)-methyl-amino]-N-hydroxy-acetamide], the IC50 worked out at 6.8 nM.
